According to publication PMC6368337, “GluClR-mediated inhibitory postsynaptic currents reveal targets for ivermectin and potential mechanisms of ivermectin resistance” (PLoS Pathogens, 2019):

Legend:
[1] = biological target: α (avr-14b) GluClRs (Haemonchus contortus, UniProt O46124); assay: Two-electrode voltage clamp in oocytes, α GluClRs; type: cell-based, H. contortus
Protocol: (§1) cDNAs encoding the α (avr-14b) (pcDNA 3.1+) or β (pUNIV) GluClR subunits of H. contortus were nuclear injected into oocytes (NASCO, WI USA) or transfected into HEK293AD cells (CellBank Australia) using a calcium phosphate-DNA co-precipitate method. Synapse formation between neurons and HEK293 cells was promoted by co-transfecting neuroligin 2A or 1B and the cDNA encoding CD4 surface antigen was also added to the transfection mixture so as to identify transfected cells. The oocytes and HEK cells were used for experiments 2–3 days after the introduction of the cDNAs. All experiments were done at room temperature (22 ± 1°C).
(§2) Xenopus laevis oocytes were harvested by surgical incision. The oocytes were then defolliculated with 1.5 mg/ml collagenase for 2 hours. Free oocytes were rinsed with calcium-free OR-2 solution containing (in mM) 82.5 NaCl, 2 KCl, 1 MgCl2, 5 HEPES, pH 7.4 and mature stage V or VI oocytes were isolated for experiments. The DNAs coding for α and β subunits were nuclear injected into the oocytes using a Nanoliter 2000 microinjector (WPI Inc) at a ratio of (α:β), 1:0, 0:1, 1:1 and 1:50. The total amount of injected DNA in all combinations was 400 ng ml^−1, including the 1:50 (α:β) combination (8 ng of DNA encoding the α and 392 ng of DNA encoding β subunits). Injected oocytes were incubated in ND96 storage solution (in mM) 96 NaCl, 2 KCl, 1 MgCl2.6H2O, 1.8 CaCl2, 5 HEPES, 50 μg ml^−1 gentamicin, 2.5 sodium pyruvate, 0.5 theophylline, pH 7.4 at 16°C for 2–3 days before experiment.
(§3) For the two-electrode voltage clamp recordings, each oocyte was secured in a cell bath that was continually perfused with ND96 recording solution (ND96 storage solution without pyruvate, theophylline and gentamicin). […] The two microelectrodes contained 3 M KCl and had resistances of 0.2–2 MΩ. Recordings were done using Clampex 10.2 software (Molecular Devices) at a clamped voltage of −40 mV. Currents were low-pass filtered at 200 Hz, sampled at 2 kHz using a Gene Clamp 500B amplifier and digitised by a Digidata 1440A interface. The IVM (IVM B1a) concentration-response experiments were standardised by using an application protocol that consisted of applying increasing concentrations of IVM for, respectively, 3 min, 3 min, 3 min, 2 min, 1 min, 1 min and 0.5 min.
(§4) Group data were analysed in SigmaPlot 13.0 using one-way ANOVAs, where p < 0.05 was taken as the significance threshold and expressed as mean ± SEM. Tests for normally distributed data are built into the SigmaPlot software. Confocal images were captured and analysed with Zen 2012 SP2 (Zeiss) software. Oocyte concentration-response data were fit to a Hill equation to obtain an EC50 and Hill co-efficient for each oocyte recording. These parameters were then averaged across multiple oocyte experiments of the same type. Single channel recordings were analysed in QuB software. […] The selected critical times eliminated periods of receptor desensitisation while retaining singe receptor active periods. Mean active period duration and intra-activation open probability was estimated from each patch. Group means were obtained by averaging across multiple patches for each recording condition.

[2] = biological target: αβ (1:1) GluClRs (Haemonchus contortus, UniProt O46124+P91730); assay: Two-electrode voltage clamp in oocytes, αβ (1:1) GluClRs; type: cell-based, H. contortus
Protocol: as §1, §2, §3
Group data were analysed in SigmaPlot 13.0 using one-way ANOVAs, where p < 0.05 was taken as the significance threshold and expressed as mean ± SEM. Tests for normally distributed data are built into the SigmaPlot software. Confocal images were captured and analysed with Zen 2012 SP2 (Zeiss) software. Oocyte concentration-response data were fit to a Hill equation to obtain an EC50 and Hill co-efficient for each oocyte recording. […] Single channel recordings were analysed in QuB software. […]

[3] = biological target: αβ (1:50) GluClRs (Haemonchus contortus, UniProt O46124+P91730); assay: Two-electrode voltage clamp in oocytes, αβ (1:50) GluClRs; type: cell-based, H. contortus
Protocol: as §1, §2, §3, §4

[4] = tested on: α and αβ (1:1) GluClRs; assay: IVM-induced tonic current in heteroculture, α and αβ data pooled; type: cell-based, H. contortus; details: continuous 5 nM IVM
Protocol: After validating the heterocultures as a reliable preparation for investigating IPSCs mediated by GluClRs, we made synaptic recordings while continuously applying IVM (5 nM) to cells similarly transfected with α and αβ GluClRs. […] Firstly, there was a steady downward deflection in baseline current over the course of the recording that was not different between cells expressing α (Fig 5A) and αβ (1:1, Fig 5B) GluClRs. […] Changes to the kinetic properties of IPSCs were also observed upon IVM application (Fig 5C–5G). These were analysed 15 minutes after the commencement of the IVM application to ensure that the effects had equilibrated. […] The decay time constant for α GluClRs slowed from 40 ± 2 ms to 100 ± 3 ms (n = 6) and for αβ GluClRs from 17 ± 2 ms to 72 ± 4 ms (n = 6, Fig 5E). The increase in activation times were from 4.6 ± 0.7 ms to 19 ± 1 ms for α GluClRs and from 3.0 ± 0.3 ms to 10 ± 1 ms for the αβ heteromers (Fig 5F). […] A comparison of the magnitude changes of IPSC parameters was also made between the two receptor isoforms.
cDNAs encoding the α (avr-14b) (pcDNA 3.1+) or β (pUNIV) GluClR subunits of H. contortus were nuclear injected into oocytes (NASCO, WI USA) or transfected into HEK293AD cells (CellBank Australia) using a calcium phosphate-DNA co-precipitate method. […]

[5] = Lipophilicity (logP); type: physicochemical
[6] = tested on: homomeric α (avr-14b) GluClRs; details: cited from earlier work
[7] = read-out: maximal response, % of saturating glutamate response

Sequence of αβ (1:50) GluClRs (O46124 entry or part of it): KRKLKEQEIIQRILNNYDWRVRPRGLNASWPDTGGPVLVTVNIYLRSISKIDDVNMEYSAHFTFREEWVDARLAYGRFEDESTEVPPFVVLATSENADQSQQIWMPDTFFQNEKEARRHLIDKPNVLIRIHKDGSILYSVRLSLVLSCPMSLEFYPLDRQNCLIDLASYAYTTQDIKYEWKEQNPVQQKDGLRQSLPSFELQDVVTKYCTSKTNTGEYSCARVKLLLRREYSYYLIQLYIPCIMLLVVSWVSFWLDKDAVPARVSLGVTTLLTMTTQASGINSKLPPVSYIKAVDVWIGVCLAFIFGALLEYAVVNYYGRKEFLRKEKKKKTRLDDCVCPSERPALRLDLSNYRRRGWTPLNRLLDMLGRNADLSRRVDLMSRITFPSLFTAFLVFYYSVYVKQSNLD
Sequence of αβ (1:50) GluClRs (P91730 19-432): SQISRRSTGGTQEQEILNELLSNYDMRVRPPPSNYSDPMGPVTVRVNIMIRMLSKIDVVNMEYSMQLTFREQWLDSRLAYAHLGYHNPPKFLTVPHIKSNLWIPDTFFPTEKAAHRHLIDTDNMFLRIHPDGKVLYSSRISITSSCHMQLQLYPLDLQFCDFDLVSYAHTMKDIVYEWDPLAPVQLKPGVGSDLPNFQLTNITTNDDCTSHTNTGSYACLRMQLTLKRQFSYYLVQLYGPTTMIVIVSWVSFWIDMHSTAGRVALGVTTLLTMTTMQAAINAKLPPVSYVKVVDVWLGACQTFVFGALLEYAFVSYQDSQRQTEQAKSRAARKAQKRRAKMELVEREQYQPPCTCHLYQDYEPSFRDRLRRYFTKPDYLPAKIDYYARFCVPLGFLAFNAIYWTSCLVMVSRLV
Sequence of α (avr-14b) GluClRs (O46124 entry or part of it): as the sequence (O46124 entry or part of it) above
Sequence of αβ (1:1) GluClRs (P91730 19-432): as the sequence (P91730 19-432) above
Sequence of αβ (1:1) GluClRs (O46124 entry or part of it): as the sequence (O46124 entry or part of it) above

CC[C@H](C)[C@H]1O[C@]2(CC[C@@H]1C)C[C@@H]1C[C@@H](C/C=C(\C)[C@@H](O[C@H]3C[C@H](OC)[C@@H](O[C@H]4C[C@H](OC)[C@@H](O)[C@H](C)O4)[C@H](C)O3)[C@@H](C)/C=C/C=C3\CO[C@@H]4[C@H](O)C(C)=C[C@@H](C(=O)O1)[C@]34O)O2 [IVM, Ivermectin]
EC50 ([1]; EC50, oocytes, holding potential −40 mV): 22 ± 3 nM | Hill co-efficient ([1]; oocytes, −40 mV): 1.9 ± 0.1 | Emax ([1]; read-out: maximal response, % of that seen with saturating glutamate): 59% | EC50 ([2]; EC50, oocytes, cDNA injection ratio α:β 1:1, −40 mV): 86 ± 14 nM | Hill co-efficient ([2]; oocytes, α:β 1:1, −40 mV): 1.0 ± 0.1 | Emax [2, 7]: 26% | differential efficacy between α and αβ (1:50) GluClRs ([3]; 30 nM, α versus αβ (1:50)): maintained | EC50 ([3]; EC50, oocytes, cDNA injection ratio α:β 1:50, −40 mV): 141 ± 11 nM | Hill co-efficient ([3]; oocytes, α:β 1:50, −40 mV): 1.6 ± 0.1 | Emax [3, 7]: 33% | tonic current fitted time constant [4]: 483 ± 72 s | tonic current mean amplitude [4]: 304 ± 54 pA | logP [5]: 5.4 | time over which single receptor active periods increase in duration after exposure [6]: 1 to 2 min
